Reference: paper PMC8222254, “Self-assembly of an anion receptor with metal-dependent kinase inhibition and potent in vitro anti-cancer properties” (Nature Communications, 2021)
Where “and” joins values, the source holds several entries; their conditions need not be identical. Identical values can stand only once.

Key:
Experiment in all cases: Kinase inhibition screen, cell-free 33P ATP assay at 10 μM
Assay type in all cases: biochemical
[1] = target: T1, 140 purified human kinases (Homo sapiens, UniProt P51955); conditions: NEK2a
T1 sequence (P51955 1-445): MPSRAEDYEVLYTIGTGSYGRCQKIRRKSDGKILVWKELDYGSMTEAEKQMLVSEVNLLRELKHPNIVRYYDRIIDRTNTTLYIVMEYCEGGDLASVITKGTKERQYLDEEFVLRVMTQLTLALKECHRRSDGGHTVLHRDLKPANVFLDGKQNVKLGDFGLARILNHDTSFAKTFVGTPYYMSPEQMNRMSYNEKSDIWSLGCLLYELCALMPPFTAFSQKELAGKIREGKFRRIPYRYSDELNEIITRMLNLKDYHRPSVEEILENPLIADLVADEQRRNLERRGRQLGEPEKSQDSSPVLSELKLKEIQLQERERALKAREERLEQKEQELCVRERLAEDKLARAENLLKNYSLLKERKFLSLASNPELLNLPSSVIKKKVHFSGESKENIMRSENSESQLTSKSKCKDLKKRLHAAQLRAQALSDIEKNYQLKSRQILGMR
Summary of the method: (§1)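 Each complex tested in duplicate at 10 μM; cell-free radiometric assay using ^33P ATP on purified enzymes. Hits mapped by HGNC symbol onto the kinome tree.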

[2] = target: T2, 140 purified human kinases (Homo sapiens, UniProt Q16832)
T2 sequence (Q16832 22-855): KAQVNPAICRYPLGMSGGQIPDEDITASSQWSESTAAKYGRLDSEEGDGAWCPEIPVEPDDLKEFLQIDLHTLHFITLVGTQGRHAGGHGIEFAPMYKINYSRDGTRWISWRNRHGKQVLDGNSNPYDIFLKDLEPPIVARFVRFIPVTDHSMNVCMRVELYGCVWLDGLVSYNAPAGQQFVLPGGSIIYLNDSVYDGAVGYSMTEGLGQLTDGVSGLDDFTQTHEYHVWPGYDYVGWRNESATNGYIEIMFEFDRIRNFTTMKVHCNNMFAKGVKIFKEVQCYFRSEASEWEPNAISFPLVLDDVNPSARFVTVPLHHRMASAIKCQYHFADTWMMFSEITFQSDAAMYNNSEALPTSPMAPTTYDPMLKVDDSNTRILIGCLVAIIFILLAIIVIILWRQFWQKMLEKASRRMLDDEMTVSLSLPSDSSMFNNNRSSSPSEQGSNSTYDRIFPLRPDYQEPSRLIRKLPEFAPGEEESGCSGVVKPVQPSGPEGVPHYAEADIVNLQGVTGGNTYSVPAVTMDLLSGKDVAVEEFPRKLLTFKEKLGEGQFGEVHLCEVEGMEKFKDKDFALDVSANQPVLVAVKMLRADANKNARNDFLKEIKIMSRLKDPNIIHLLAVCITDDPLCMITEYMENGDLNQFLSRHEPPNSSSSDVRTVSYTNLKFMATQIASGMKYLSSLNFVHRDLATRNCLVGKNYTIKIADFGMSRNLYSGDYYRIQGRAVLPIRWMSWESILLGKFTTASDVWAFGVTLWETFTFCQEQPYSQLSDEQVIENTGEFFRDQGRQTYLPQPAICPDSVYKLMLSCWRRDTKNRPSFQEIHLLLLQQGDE
Summary of the method: as §1

[3] = target: 140 purified human kinases (Homo sapiens, UniProt Q9NQU5)
Summary of the method: as §1

[4] = target: 140 purified human kinases (Homo sapiens, UniProt P53350); conditions: for % Activity Run 1 / % Activity Run 2: 10 µM
Summary of the method: as §1

[5] = target: 140 purified human kinases (Homo sapiens, UniProt Q13164)
Summary of the method: as §1

[6] = target: 140 purified human kinases (Homo sapiens, UniProt P24941); conditions: CDK2-Cyclin A
Summary of the method: as §1

[7] = target: 140 purified human kinases (Homo sapiens, UniProt Q9H4A3)
Summary of the method: as §1

[8] = target: T3, 140 purified human kinases (Homo sapiens, UniProt Q9BXA7)
T3 sequence (Q9BXA7 1-367): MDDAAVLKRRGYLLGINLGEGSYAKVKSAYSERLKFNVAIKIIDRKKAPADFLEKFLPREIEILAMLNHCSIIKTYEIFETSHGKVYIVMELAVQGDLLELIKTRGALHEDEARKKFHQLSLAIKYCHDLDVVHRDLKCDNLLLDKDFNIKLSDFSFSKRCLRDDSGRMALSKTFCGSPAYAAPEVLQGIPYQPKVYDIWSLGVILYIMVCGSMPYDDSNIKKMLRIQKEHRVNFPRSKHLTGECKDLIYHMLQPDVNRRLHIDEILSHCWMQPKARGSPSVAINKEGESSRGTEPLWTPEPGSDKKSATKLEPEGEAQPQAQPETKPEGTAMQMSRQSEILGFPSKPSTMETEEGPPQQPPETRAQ
Summary of the method: as §1

Sequence of 140 purified human kinases (Homo sapiens, UniProt Q9NQU5) (Q9NQU5 whole entry): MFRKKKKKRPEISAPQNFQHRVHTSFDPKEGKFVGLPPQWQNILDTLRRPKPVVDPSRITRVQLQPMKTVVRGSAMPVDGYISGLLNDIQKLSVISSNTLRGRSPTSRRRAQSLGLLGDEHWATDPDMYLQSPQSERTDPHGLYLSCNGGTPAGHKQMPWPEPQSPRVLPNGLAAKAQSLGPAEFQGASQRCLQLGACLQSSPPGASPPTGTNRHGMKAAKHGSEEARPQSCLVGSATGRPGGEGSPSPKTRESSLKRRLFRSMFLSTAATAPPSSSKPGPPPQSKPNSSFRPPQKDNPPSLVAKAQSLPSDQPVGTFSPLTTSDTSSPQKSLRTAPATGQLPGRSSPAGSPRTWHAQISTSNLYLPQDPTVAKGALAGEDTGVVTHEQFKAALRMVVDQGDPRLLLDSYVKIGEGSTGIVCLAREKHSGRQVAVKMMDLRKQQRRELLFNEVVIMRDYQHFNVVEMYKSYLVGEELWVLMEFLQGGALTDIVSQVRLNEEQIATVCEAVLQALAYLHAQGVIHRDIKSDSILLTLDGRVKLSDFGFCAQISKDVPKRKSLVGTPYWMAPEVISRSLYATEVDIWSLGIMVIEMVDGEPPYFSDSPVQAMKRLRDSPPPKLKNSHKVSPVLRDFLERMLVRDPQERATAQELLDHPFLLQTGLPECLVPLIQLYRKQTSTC
Sequence of 140 purified human kinases (Homo sapiens, UniProt Q13164) (Q13164 whole entry): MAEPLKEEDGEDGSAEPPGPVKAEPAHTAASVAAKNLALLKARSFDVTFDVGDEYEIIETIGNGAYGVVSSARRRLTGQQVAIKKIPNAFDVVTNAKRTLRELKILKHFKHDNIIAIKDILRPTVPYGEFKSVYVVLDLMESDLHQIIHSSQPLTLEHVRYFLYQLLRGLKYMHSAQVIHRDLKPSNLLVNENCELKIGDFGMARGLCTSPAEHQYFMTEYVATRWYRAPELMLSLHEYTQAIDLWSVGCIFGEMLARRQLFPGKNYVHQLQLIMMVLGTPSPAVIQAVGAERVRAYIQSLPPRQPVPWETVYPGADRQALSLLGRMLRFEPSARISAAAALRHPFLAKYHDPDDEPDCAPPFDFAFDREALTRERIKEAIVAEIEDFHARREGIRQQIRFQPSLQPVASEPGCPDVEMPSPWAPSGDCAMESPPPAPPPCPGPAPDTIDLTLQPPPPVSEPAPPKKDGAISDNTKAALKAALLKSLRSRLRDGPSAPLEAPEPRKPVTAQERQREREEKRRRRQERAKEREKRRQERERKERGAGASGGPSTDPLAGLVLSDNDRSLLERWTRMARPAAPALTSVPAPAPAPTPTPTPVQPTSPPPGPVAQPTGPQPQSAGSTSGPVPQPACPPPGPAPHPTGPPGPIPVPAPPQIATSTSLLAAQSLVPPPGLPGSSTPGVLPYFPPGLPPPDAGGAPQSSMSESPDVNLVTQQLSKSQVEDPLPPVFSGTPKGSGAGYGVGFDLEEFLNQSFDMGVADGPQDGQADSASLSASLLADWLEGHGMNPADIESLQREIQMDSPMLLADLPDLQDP
Sequence of 140 purified human kinases (Homo sapiens, UniProt P53350) (P53350 whole entry): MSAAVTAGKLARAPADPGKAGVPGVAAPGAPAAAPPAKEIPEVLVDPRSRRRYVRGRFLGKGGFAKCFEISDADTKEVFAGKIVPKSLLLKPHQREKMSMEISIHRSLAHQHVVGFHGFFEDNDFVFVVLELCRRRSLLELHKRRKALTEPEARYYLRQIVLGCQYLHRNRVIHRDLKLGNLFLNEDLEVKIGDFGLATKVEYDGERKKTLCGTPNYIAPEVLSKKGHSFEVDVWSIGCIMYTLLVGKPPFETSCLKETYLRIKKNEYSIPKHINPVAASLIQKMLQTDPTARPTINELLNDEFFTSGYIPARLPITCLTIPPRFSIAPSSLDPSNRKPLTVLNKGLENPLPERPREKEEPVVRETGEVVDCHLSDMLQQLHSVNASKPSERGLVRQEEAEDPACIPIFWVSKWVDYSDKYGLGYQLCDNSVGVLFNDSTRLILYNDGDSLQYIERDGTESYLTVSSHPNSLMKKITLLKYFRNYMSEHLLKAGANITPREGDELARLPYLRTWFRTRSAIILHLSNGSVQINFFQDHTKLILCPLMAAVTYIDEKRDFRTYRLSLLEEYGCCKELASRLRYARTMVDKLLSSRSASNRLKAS
Sequence of 140 purified human kinases (Homo sapiens, UniProt Q9H4A3) (Q9H4A3 whole entry): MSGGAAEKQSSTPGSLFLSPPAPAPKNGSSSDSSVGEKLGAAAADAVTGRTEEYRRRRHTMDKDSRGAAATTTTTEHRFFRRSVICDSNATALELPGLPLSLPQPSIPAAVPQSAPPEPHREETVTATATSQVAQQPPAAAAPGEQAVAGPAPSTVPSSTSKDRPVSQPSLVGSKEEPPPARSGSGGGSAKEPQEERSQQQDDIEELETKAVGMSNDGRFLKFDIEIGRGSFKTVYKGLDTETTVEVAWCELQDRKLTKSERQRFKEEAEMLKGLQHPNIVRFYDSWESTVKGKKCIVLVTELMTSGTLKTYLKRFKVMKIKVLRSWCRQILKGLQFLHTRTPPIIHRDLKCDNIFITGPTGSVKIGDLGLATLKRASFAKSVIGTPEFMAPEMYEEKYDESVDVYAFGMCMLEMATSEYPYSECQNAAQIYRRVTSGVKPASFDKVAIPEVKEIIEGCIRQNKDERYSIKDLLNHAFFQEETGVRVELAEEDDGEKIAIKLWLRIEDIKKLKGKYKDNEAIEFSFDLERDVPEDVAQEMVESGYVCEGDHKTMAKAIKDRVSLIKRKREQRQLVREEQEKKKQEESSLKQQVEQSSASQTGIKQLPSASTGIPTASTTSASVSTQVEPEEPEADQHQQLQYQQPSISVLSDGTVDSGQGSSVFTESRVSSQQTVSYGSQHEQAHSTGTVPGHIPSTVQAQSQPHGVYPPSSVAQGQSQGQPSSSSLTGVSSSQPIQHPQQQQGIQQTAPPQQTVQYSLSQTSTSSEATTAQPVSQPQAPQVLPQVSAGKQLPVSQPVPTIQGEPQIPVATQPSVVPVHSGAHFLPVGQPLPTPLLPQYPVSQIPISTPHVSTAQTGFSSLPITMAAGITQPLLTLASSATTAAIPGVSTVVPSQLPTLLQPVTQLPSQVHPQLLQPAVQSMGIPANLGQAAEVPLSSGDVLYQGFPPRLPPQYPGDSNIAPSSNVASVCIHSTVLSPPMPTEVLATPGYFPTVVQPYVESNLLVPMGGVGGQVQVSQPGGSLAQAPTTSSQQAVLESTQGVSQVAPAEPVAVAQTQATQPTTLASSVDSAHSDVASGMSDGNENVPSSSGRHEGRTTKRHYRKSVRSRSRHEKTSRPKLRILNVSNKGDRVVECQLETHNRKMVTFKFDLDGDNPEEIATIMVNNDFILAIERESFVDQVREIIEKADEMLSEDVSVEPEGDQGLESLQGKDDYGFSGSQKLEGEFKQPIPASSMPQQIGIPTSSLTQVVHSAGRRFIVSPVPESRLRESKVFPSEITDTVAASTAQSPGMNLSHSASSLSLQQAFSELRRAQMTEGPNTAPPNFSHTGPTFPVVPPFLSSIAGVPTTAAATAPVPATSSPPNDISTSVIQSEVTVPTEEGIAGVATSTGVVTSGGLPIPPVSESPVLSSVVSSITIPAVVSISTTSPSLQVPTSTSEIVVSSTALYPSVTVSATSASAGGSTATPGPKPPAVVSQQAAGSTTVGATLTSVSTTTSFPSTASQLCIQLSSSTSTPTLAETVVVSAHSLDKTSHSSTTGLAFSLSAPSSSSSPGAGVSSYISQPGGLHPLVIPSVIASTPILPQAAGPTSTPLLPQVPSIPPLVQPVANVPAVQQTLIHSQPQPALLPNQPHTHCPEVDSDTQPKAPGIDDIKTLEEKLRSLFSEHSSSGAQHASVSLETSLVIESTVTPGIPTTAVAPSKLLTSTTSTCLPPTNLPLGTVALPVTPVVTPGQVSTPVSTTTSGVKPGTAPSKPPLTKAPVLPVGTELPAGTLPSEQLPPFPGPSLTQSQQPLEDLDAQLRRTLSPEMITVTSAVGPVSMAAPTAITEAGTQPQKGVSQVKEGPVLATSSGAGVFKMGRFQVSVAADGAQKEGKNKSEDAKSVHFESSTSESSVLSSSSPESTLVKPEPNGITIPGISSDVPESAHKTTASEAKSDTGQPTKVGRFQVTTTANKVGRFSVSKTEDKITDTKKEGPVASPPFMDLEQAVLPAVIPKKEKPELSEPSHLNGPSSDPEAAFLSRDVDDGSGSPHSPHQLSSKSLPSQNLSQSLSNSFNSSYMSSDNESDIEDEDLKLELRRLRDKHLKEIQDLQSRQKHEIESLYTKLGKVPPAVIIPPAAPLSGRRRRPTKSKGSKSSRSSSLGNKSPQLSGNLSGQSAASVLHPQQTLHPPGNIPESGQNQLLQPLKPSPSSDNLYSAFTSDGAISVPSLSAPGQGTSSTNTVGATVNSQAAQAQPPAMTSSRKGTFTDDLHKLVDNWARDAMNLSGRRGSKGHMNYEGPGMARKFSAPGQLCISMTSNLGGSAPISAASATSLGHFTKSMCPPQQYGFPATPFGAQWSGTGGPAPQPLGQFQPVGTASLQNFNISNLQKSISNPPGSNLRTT

[Cu+2].[Cu+2].[Cu+2].c1ccc(-c2csc(NCCN(CCNc3nc(-c4ccccn4)cs3)CCNc3nc(-c4ccccn4)cs3)n2)nc1.c1ccc(-c2csc(NCCN(CCNc3nc(-c4ccccn4)cs3)CCNc3nc(-c4ccccn4)cs3)n2)nc1 [[L2Cu3]6+]
% Inhibition Run 1 [1]: 94.1% | % Inhibition Run 2 [1]: 94% | % Inhibition, Mean [1]: 94% | mean % activity [1]: 6% | % activity ([1]; Run 1): 5.9% | % activity ([1]; Run 2): 6% | % Activity inhibition Mean ([1]; 10 µM): 94.1% | % Activity inhibition Run 1 ([1]; 10 µM): 94.1% | % Activity inhibition Run 2 ([1]; 10 µM): 94% | % Activity remaining Run 1 ([1]; 10 µM): 5.90% | % Activity remaining Run 2 ([1]; 10 µM): 6.00% | % Inhibition Run 1 ([2]; DDR2): 21.7% | % Inhibition Run 2 ([2]; DDR2): 11.4% | % Inhibition, Mean ([2]; DDR2): 17% | mean % activity ([2]; DDR2): 83% | % activity ([2]; DDR2, Run 1): 78.3% | % activity ([2]; DDR2, Run 2): 88.6% | % Inhibition Run 1 ([3]; PAK6): 49.1% | % Inhibition Run 2 ([3]; PAK6): 47.9% | % Inhibition, Mean ([3]; PAK6): 49% | mean % activity ([3]; PAK6): 52% | % activity ([3]; PAK6, Run 1): 50.9% | % activity ([3]; PAK6, Run 2): 52.1% | % Activation, Mean value ([4]; PLK1): 12% | % Inhibition Run 1 ([4]; PLK1): -4.1% | % Inhibition Run 2 ([4]; PLK1): -19.1% | % Inhibition, Mean ([4]; PLK1): -12% | mean % activity ([4]; PLK1): 112% | % activity ([4]; PLK1, Run 1): 104.1% | % activity ([4]; PLK1, Run 2): 119.1% | % Activity Run 1 ([4]; PLK1): 104.10% | % Activity Run 2 ([4]; PLK1): 119.10% | % Activation, Mean value ([5]; ERK5): 2% | % Inhibition Run 1 ([5]; ERK5): 3% | % Inhibition Run 2 ([5]; ERK5): -7.2% | % Inhibition, Mean ([5]; ERK5): -2% | mean % activity ([5]; ERK5): 102% | % activity ([5]; ERK5, Run 1): 97% | % activity ([5]; ERK5, Run 2): 107.2% | % Activation, Mean value [6]: 9.5% | % Inhibition Run 1 [6]: -10.1% | % Inhibition Run 2 [6]: -8.9% | % Inhibition, Mean [6]: -9.5% | mean % activity [6]: 110% | % activity ([6]; Run 1): 110.1% | % activity ([6]; Run 2): 108.9% | % Activity Run 1 ([6]; 10 µM): 110.10% | % Activity Run 2 ([6]; 10 µM): 108.90% | % Inhibition Run 1 ([7]; WNK1): 12.1% | % Inhibition Run 2 ([7]; WNK1): -2.6% | % Inhibition, Mean ([7]; WNK1): 4.75% | mean % activity ([7]; WNK1): 95% | % activity ([7]; WNK1, Run 1): 87.9% | % activity ([7]; WNK1, Run 2): 102.6% | % Inhibition Run 1 ([8]; TSSK1): 44% | % Inhibition Run 2 ([8]; TSSK1): 46.8% | % Inhibition, Mean ([8]; TSSK1): 45% | mean % activity ([8]; TSSK1): 55% | % activity ([8]; TSSK1, Run 1): 56% | % activity ([8]; TSSK1, Run 2): 53.2%

CC(=O)[O-].CC(=O)[O-].CC(=O)[O-].CC(=O)[O-].CC(=O)[O-].CC(=O)[O-].[Zn+2].[Zn+2].[Zn+2].c1ccc(-c2csc(NCCN(CCNc3nc(-c4ccccn4)cs3)CCNc3nc(-c4ccccn4)cs3)n2)nc1.c1ccc(-c2csc(NCCN(CCNc3nc(-c4ccccn4)cs3)CCNc3nc(-c4ccccn4)cs3)n2)nc1 [[L2Zn3]6+]
% Inhibition, Mean [1]: 30% | mean % activity [1]: 70% | % activity ([1]; duplicate runs): 58% and 82% | % Inhibition, Mean ([2]; DDR2): 19% | % Inhibition, Run 1 / Run 2 ([2]; DDR2): 23% and 15% | mean % activity ([2]; DDR2): 81% | % activity ([2]; DDR2, duplicate runs): 77% and 85% | % Inhibition, Mean ([3]; PAK6): 27% | mean % activity ([3]; PAK6): 73% | % activity ([3]; PAK6, duplicate runs): 63% and 83% | % Activation, Mean value ([4]; PLK1): 17% | % Inhibition, Mean ([4]; PLK1): -17% | % Inhibition, Run 1 / Run 2 ([4]; PLK1): -15% and -19% | mean % activity ([4]; PLK1): 117% | % Activity Run 1 ([4]; PLK1): 115.0% | % Activity Run 2 ([4]; PLK1): 119.0% | % activity ([4]; PLK1, duplicate runs): 115% and 119% | % Inhibition, Mean ([5]; ERK5): 16% | mean % activity ([5]; ERK5): 84% | % activity ([5]; ERK5, duplicate runs): 65% and 104% | % Inhibition, Mean [6]: 1.8% | mean % activity [6]: 98% | % activity ([6]; duplicate runs): 93% and 103% | % Inhibition, Mean ([7]; WNK1): 2.3% | mean % activity ([7]; WNK1): 98% | % activity ([7]; WNK1, duplicate runs): 90% and 106% | % Inhibition, Mean ([8]; TSSK1): 27% | % Inhibition, Run 1 / Run 2 ([8]; TSSK1): 29% and 24% | mean % activity ([8]; TSSK1): 73% | % activity ([8]; TSSK1, duplicate runs): 71% and 76%
